Consider five compounds from patent publication US11679168B2, “Caspase-3-triggered molecular self-assembling PET probes and uses thereof” (The Board of Trustees of the Leland Stanford Junior …, priority 2018, dated 2023).

Square brackets hold non-standard residues; d marks the D form. Peptide text beside a SMILES is read from it. * marks the point of attachment. NH(CH2)3O(2-CNpyrimidin5yl) = N#Cc1ncc(OCCCN*)cn1; 4Amb = NCc1ccc(C(=O)O)cc1; Pra = C#CC[CH](N)C(=O)O; Cbz = O=C(OCc1ccccc1)*; CH2F = FC*; SEt = CCS*

Data set [1] concerns caspase-3 activity in H460 cells. In words: Confocal imaging of cisplatin-treated H460 cells with C-SNAF4-Cy5. The format is cell-based, human. The settings on record: 50 μM. As to the method: Confocal Microscopy Imaging of Cisplatin-treated H460 Cells With C-SNAF4-Cy5: NCI-H460 cells at 70% confluency were either left naïve or treated with cisplatin (10 μM) for 24 hours. After removal of the medium, cells were incubated with 2 μM C-SNAF4-Cy5 at 37° C. for 24 hours. For the inhibition study, cells were first incubated with pan-caspase inhibitor Z-VAD-fmk (50 μM, 30 min) before incubation with C-SNAF4-Cy5.

The next data set has as its system H1299 tumor. In words: Caliper measurement of H1299 tumor volumes. The format is in vivo, mice. The settings on record: H1299, high dose (9 mg/kg every other day x3, i.v.), day 21 after implantation. The method, then:
(§1) FIG. 5B illustrates caliper measurement of H460 and H1299 tumor volumes in saline and drug-treated mice. Measurements are time after cell implantation, with high dose of cisplatin-treated (Intravenous injection, 9 mg/kg every other day for three times) in H460 and in H1299 tumor-bearing mice as arrow indicated (arrow). n=5 for each group.
(§2) Animal model and probe administration: For subcutaneous tumor models, H460 or H1299 (2×10^6 cells in 100 μl of PBS) were injection subcutaneously on the back of female nu/nu nude mice (aged 6 to 8 weeks; Charles River Laboratories). Tumor dimensions were measured periodically using a caliper (by the same researcher), with tumor volumes calculated by the following equation: volume=a×b×c/2, where a, b, and c represent three orthogonal axis of the tumor. Treatment-response analysis was performed 24 h after drug treatment. For all other experiments, animals were culled 26 h after therapy and tissues excised for analysis. For chemotherapy mouse model, tumors were grown to about 150 mm^3, and then treatment that consisted of cisplatin (Sigma-Aldrich; Low dose: 3 mg/kg; high dose: 9 mg/kg) or saline was initiated through intravenous administration, every other day for three times. Total mouse body weight and tumor size were measured every other day. Treat or left untreated. […]

Another data set relates to H460 tumor. In words: Caliper measurement of H460 tumor volumes. The format is in vivo, mice. The conditions noted are these: H460, high dose (9 mg/kg every other day x3, i.v.), day 13 after implantation. As to the method: as §1, §2
A further data set relates to H460 cells. Put plainly: MTS cell viability assay in H460 cells. It is filed as cell-based, human. The method, then:
(§3) FIG. 13 illustrates cellular toxicity analysis in H460 and H1299 cells. Cells were incubated at different concentration of [^19F]-C-SNAT4 over 24 hours. The viability of cells was measured using an MTS assay.
FIG. 14 illustrates a Cisplatin dose response curves were assessed in H460 cells by MTS assay. The curves generated by GraphPad Prism software.
FIG. 36A illustrates the toxicity of C-SNAF4-Cy5 in heathy and apoptotic NCI-H460 measured with MTS assay (37° C., 24 h) in heathy H460 cells.
FIG. 36B illustrates the toxicity of C-SNAF4-Cy5 in H460 cells treated with cisplatin (1 μM, 24 hours) followed by incubation with C-SNAF4-Cy5 (37° C., 24 h).
Cell study: All cell lines were assessed to be pathogen-free prior to use in this study. […] Cell viability was assessed with CellTiter 96.RM AQueous One Solution Cell Proliferation Assay (MTS) kit from Promega (Madison, Wis., USA). […] After 60 min of incubation at 37° C., the absorbance was read at 490 nm with a 96 well plate reader from BMG LABTECH GmbH (Ortenberg, Germany).

For data set [2] the following is noted: L-cysteine with CBT; reported in Reference 13; cited from earlier work.
A short description of data set [3]: Condensation kinetics of aminothiols with CBT (HPLC assay). It is filed as physicochemical. The settings on record: substituted cysteine analogues with CBT, FIG. 50B. As to the method:
General Methods for Measuring Kinetics of Condensation Reactions Between Aromatic Nitriles and Aminothiols: The 2nd order rate constants for condensation reactions between aromatic nitriles and aminothiols were measured by using HPLC assays. To solutions of aromatic nitriles (100 μM) in phosphate buffered saline (PBS) (1×, pH=7.4) were added aminothiol (1.0 equiv.), TCEP (2.0 equiv.) and NaHCO3 (3 equiv.). The reaction solutions were kept at room temperature (23° C.) and monitored by HPLC at different time points. The conversion rates were calculated using the peak integrals of aromatic nitriles and the condensation products at 254 nm. Based on 2nd order reaction law, 1/[aromatic nitrile] was plotted against time and the slope of the linear regression result gives the 2nd order rate constant.

In another data set the test system is H1299 cells. Put plainly: MTS cell viability assay in H1299 cells. The format is cell-based, human. The conditions noted are these: H1299, up to 100 μM, 24 hours. As to the method: as §3
Cell study: All cell lines were assessed to be pathogen-free prior to use in this study. Human H460 and H1299 lung adenocarcinoma cells non-small cell lung cancer H460 (ATCC) and H1299 (ATCC) were cultured in Dulbecco's modified Eagle's medium (DMEM) (Invitrogen), supplement with 10% v/v fetal bovine serum (Life Technologies Inc.) and 1% v/v penicillin-streptomycin (100 IU/ml, […]; Life Technologies Inc.) at 37° C. in a humidified atmosphere maintained at 5% CO2. X-radiation was performed with an X-ray generator (0.2 mm Cu and 1 mm Al filter, 150 kV, Hitachi). The irradiation was carried out at room temperature at a dose rate of 0.2 Gy/min. Cell viability was assessed with CellTiter 96.RM AQueous One Solution Cell Proliferation Assay (MTS) kit from Promega (Madison, Wis., USA). Briefly, 100 μl aliquots of the treated or untreated cell suspension were seeded into 96-well polystyrene tissue culture plates and 20 μl of assay reagent was added to each well. After 60 min of incubation at 37° C., the absorbance was read at 490 nm with a 96 well plate reader from BMG LABTECH GmbH (Ortenberg, Germany).

The next data set deals with T1, caspase-3 (Homo sapiens, UniProt P42574).
T1 construct: before and after addition of active caspase-3 (Casp3) enzyme; purchased Sigma; host or cells: E. coli
T1 sequence (P42574 29-175 limits assumed): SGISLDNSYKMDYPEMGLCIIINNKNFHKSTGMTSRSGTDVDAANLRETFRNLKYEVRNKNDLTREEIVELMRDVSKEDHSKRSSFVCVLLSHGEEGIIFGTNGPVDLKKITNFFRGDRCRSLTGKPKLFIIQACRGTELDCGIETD
T1 sequence (P42574 176-277 limits assumed): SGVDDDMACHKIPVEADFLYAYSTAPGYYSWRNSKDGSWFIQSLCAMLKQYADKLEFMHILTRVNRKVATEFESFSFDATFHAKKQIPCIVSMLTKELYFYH
Put plainly: Nanoaggregation of [19F]-C-SNAT4 after caspase-3 activation (DLS, TEM). The format is biochemical. The method, then: FIG. 1C illustrates the TEM images of [^19F]-C-SNAT4 before and after addition of active caspase-3 (Casp3) enzyme. [^19F]-C-SNAT4 (20 μM) was incubated with caspase-3 (2×10^−3U mL^−1, human, recombinant from E. coli, Sigma) in caspase buffer at 37° C. overnight.
FIG. 12 illustrates in vitro validation and nanoaggregation characterization of [^19F]-C-SNAT4. [^19F]-C-SNAT4 and formation of cycl-[^19F]-SNAT4 after [^19F]-C-SNAT4 incubated with caspase-3 were analyzed by (A) HPLC, (B) DLS of [^19F]-C-SNAT4 without and with caspase-3 incubation. [^19F]-C-SNAT4 (20 μM) was incubated with caspase-3 (2×10^−3U mL^−1, human, recombinant from E. coli, Sigma) in caspase buffer (50 mM HEPES, 100 mM NaCl, 1 mM EDTA, 10 mM TCEP, 10% glycerol and 0.1% CHAPS at pH 7.4) at 37° C. overnight.

The next data set has as its target recombinant human MetAP2 (Homo sapiens, UniProt P50579). Put plainly: Macrocyclization and nanoaggregation of M-SNAT with recombinant MetAP2.
Data set [4] concerns MetAP2 activity in 22Rv1 cells. In words: Imaging MetAP2 activity in 22Rv1 cells (post click Cy5 labeling). The format is cell-based, human. The conditions noted are these: MetAP2 knockdown 22Rv1 cells, 24 h.
Data set [5] deals with MetAP2 activity in PC3 cells. Put plainly: Imaging MetAP2 activity in PC3 cells (post click Cy5 labeling). The format is cell-based, human. The conditions noted are these: 24 h. As to the method: FIG. 45B illustrates fluorescence microscopy imaging of cy5 post-labeled M-SNAT (20 μM) with or without TNP470 and M-SNAT-ctrl (20 μM) in PC3 cells. Permealized cells were also stained with DAPI (blue).
Imaging MetAP2 activity in cancer cells: Cell uptake and MetAP2 specific activation of M-SNAT and M-SNAT-ctrl were evaluated in PC3 and DU145 cells with the MetAP2-specific inhibitor TNP-470. Post click fluorescent labeling was performed as illustrated in FIG. 45A to locate the nanoaggregation in cells and avoid the possible interference with probe uptake by pre-conjugating a large Cy5 fluorophore.

Data set [6] has as its system MetAP2 activity in DU145 cells. In words: Imaging MetAP2 activity in DU145 cells (post click Cy5 labeling). It is filed as cell-based, human. The method, then: Imaging MetAP2 activity in cancer cells: […] Post click fluorescent labeling was performed as illustrated in FIG. 45A to locate the nanoaggregation in cells and avoid the possible interference with probe uptake by pre-conjugating a large Cy5 fluorophore.

Chain of recombinant human MetAP2 (P50579 whole entry): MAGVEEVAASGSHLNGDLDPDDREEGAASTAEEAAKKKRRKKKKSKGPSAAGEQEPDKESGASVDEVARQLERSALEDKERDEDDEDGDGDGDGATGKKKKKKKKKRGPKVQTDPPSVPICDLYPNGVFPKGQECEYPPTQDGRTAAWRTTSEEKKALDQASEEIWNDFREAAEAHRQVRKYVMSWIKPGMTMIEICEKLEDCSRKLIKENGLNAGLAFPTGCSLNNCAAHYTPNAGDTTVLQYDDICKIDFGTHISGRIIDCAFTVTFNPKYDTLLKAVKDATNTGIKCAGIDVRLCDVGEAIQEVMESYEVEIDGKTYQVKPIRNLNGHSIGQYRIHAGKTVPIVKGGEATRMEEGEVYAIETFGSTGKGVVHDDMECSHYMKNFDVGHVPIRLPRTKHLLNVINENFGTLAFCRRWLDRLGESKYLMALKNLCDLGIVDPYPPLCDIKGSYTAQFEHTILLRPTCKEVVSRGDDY

`COC(=O)C[C@H](NC(=O)[C@H](C)NC(=O)[C@@H](NC(=O)OCc1ccccc1)C(C)C)C(=O)CF` [Z-VAD-fmk] (Cbz-Val-Ala-Asp(OMe)-CH2F): the “effect on C-SNAF4-Cy5 fluorescence” value in data set [1] is “Fluorescence abolishment”.
Turning to `N.N.[Cl][Pt][Cl]` [cisplatin], the tumor volume in the data set with H1299 tumor was 1348.5±356.0 mm^3; in the data set on H460 tumor, 690.8±88.6 mm^3. For the same compound, the IC50 in the data set with H460 cells (H460, MTS assay, read-out: half-maximal inhibitory concentration (IC50)) is 9.51 µM.
On to `N[C@@H](CS)C(=O)O` [L-cysteine], for which the “2nd order rate constant k” value in data set [2] was 2.9 M⁻¹ s⁻¹. This compound also showed a second-order reaction rate in data set [3] of 3.2 M⁻¹ s⁻¹.
On to `CCSSCC(NC(=O)C(CC(=O)O)NC(=O)C(NC(=O)C(CCC(=O)O)NC(=O)C(CC(=O)O)NC(C)=O)C(C)C)C(=O)NCC(=O)NC(Cc1cn(CCOCCOCCOCCF)nn1)C(=O)NCc1ccc(C(=O)NCCCOc2cnc(C#N)nc2)cc1` (stereo not shown) [[^19F]-C-SNAT4], for which the cytotoxicity entry in the data set on H1299 cells was “no toxicity”; in the data set with H460 cells (H460, up to 100 μM, 24 hours), “no toxicity”. Besides, the “average size of nanoparticles (DLS)” value at caspase-3 is given as “around 200 nm”.
Take `C#CCC(NC(=O)CNC(=O)C(CSSCC)NC(=O)C(N)CCSC)C(=O)NCc1ccc(C(=O)NCCCOc2cnc(C#N)nc2)cc1` (stereo not shown) [M-SNAT] (H-MC(SEt)G[Pra][4Amb]-{NH(CH2)3O(2-CNpyrimidin5yl)}; configuration not given here): the “average diameter of nanoparticles (DLS, TEM)” value at recombinant human MetAP2 (10 μM, MetAP2 7.5 μg/ml, 24 h) came out at 861 nm. In addition, the “diameter range of nanoparticles” value on recombinant human MetAP2 (10 μM, MetAP2 7.5 μg/ml, 24 h) is recorded as 531-1281 nm. Further, on recombinant human MetAP2 (10 μM, MetAP2 7.5 μg/ml, TCEP, 24 h), the “macrocyclization (HPLC, mass spectrometry)” value is recorded as “converted into M-SNAT-cyclized”. Moreover, at recombinant human MetAP2 (FIG. 44B), the “average diameter of nanoparticles (DLS)” value is on record as 861 nM. Besides, the “diameter range of nanoparticles (DLS)” value at recombinant human MetAP2 (FIG. 44B) was in the range of 531 to 1281 nM. Besides, the “Cy5 post-labeled fluorescence in cells” value is reported as “much weaker red fluorescence” in [4]; “much weaker red fluorescence” in data set [5] (MetAP2 knockdown PC3 cells); “red fluorescence was observed” in data set [5] (PC3, 20 μM); “red fluorescence was observed” in [6] (DU145, 20 μM, 24 h). Moreover, the accumulation in cells entry in data set [6] (DU145) is on record as “dose-dependent manner”.
